Columns and labels:
[1] = refractive index (other wavelength) (dimensionless); xn = mol fraction of the nth substance listed; details: Liquid, ellipsometry
[2] = refractive index (other wavelength) (dimensionless); details: 101 kPa, Liquid, Wavelength=632.8 nm, ellipsometry
[3] = Crystal; DTA

[Cl][Sm]([Cl])[Cl] [samarium chloride] + [Cl-].[Cs+]
refractive index, [1], 100 kPa, Wavelength=6328 nm
Details	973 K	1003 K	1023 K	1073 K	1103 K	1123 K	1153 K	1173 K	1203 K
x1 = 0.15	–	–	1.468	1.464	1.458	1.448	–	1.44	–
x1 = 0.5	1.564	1.558	1.557	1.55	1.543	1.54	–	1.527	1.523
x1 = 0.75	1.675	1.668	1.662	1.654	1.651	1.642	–	1.64	1.635
x1 = 1	1.712	1.705	1.701	1.691	1.684	1.68	1.674	1.672	–

[Cl-].[Na+] [sodium chloride] + [Cl][Sm]([Cl])[Cl]
[1], 100 kPa, Wavelength=632.8 nm, x2 = 0
Details	refractive index
1083 K	1.41
1093 K	1.408
1103 K	1.407
1113 K	1.406
1123 K	1.405
1133 K	1.404
1153 K	1.402
1173 K	1.399

[Cl][Sm]([Cl])[Cl] [samarium chloride] + [Cl-].[K+]
refractive index, [1], 100 kPa, Wavelength=632.8 nm
Details	973 K	1003 K	1023 K	1073 K	1103 K	1123 K	1153 K	1173 K	1203 K
x1 = 0.25	–	–	–	1.478	1.47	1.466	–	1.458	1.45
x1 = 0.5	1.588	1.582	1.577	1.56	1.551	1.54	–	1.525	1.52
x1 = 0.75	1.66	1.652	1.651	1.63	1.623	1.618	–	1.605	1.601
x1 = 1	1.712	1.705	1.701	1.691	1.684	1.68	1.674	1.672	–

[Cl-].[Cs+] [cesium chloride] + [Cl][Sm]([Cl])[Cl]
[1], 100 kPa, Wavelength=6328 nm, x2 = 0
Details	refractive index
1023 K	1.439
1033 K	1.438
1053 K	1.434
1073 K	1.43
1093 K	1.426
1113 K	1.423
1133 K	1.419
1153 K	1.415
1173 K	1.411

[Cl-].[K+] [potassium chloride]
[2]
Details	refractive index
1073 K	1.393
1093 K	1.39
1103 K	1.388
1113 K	1.386
1123 K	1.385
1133 K	1.383
1153 K	1.38
1173 K	1.377
1193 K	1.374

[Cl][Ce]([Cl])[Cl] [cerium trichloride]
Details	Normal melting temperature [°C]
[3]	822

[2]
Details	refractive index
1103 K	1.697
1133 K	1.691
1153 K	1.688
1173 K	1.685
1193 K	1.681
1213 K	1.678
1233 K	1.674

[Cl-].[Cl-].[Cl-].[Gd+3] [gadolinium(III) chloride] + [Cl-].[Na+]
refractive index, [1], 100 kPa, Wavelength=632.8 nm
Details	923 K	973 K	1023 K	1073 K	1123 K	1173 K
x1 = 0.25	1.525	1.518	1.512	1.505	1.496	1.488
x1 = 0.5	1.586	1.58	1.57	1.562	1.55	1.544
x1 = 0.75	1.643	1.64	1.638	1.627	1.62	1.616
x1 = 1	1.7	1.685	1.68	1.675	1.664	1.662

[Cl-].[K+] [potassium chloride] + [Cl-].[Cl-].[Cl-].[Gd+3]
[1], 100 kPa, Wavelength=632.8 nm, x2 = 0
Details	refractive index
1073 K	1.393
1093 K	1.39
1103 K	1.388
1113 K	1.386
1123 K	1.385
1133 K	1.383
1153 K	1.38
1173 K	1.377
1193 K	1.374

[Cl][Sm]([Cl])[Cl] [samarium chloride] + [Cl-].[Na+]
refractive index, [1], 100 kPa, Wavelength=632.8 nm
Details	973 K	1003 K	1023 K	1073 K	1103 K	1123 K	1153 K	1173 K	1193 K
x1 = 0.25	1.536	1.53	1.526	1.518	1.513	1.51	–	1.503	1.499
x1 = 0.5	1.613	1.609	1.602	1.583	1.582	1.58	–	1.569	–
x1 = 0.75	1.672	1.665	1.662	1.653	1.648	1.64	–	1.629	–
x1 = 1	1.712	1.705	1.701	1.691	1.684	1.68	1.674	1.672	–

[Cl][Ce]([Cl])[Cl] [cerium trichloride] + [Cl-].[K+]
refractive index, [1], 100 kPa, Wavelength=632.8 nm
Details	1073 K	1103 K	1123 K	1133 K	1153 K	1173 K	1193 K	1203 K	1213 K	1233 K
x1 = 0.25	1.478	1.475	1.471	–	1.466	1.463	1.46	–	–	–
x1 = 0.5	1.56	1.554	1.552	–	1.548	1.544	–	1.54	–	–
x1 = 0.75	1.591	1.586	1.583	–	1.582	1.575	–	–	–	–
x1 = 1	–	1.697	–	1.691	1.688	1.685	1.681	–	1.678	1.674

[Cl-].[K+] [potassium chloride] + [Cl-].[Na+]
[1], 101 kPa, Wavelength=632.8 nm, x2 = 0.5
Details	refractive index
953 K	1.42
973 K	1.417
993 K	1.414
1013 K	1.411
1033 K	1.408
1053 K	1.405
1073 K	1.402
1093 K	1.399
1103 K	1.397
1113 K	1.396
1123 K	1.394
1133 K	1.393
1153 K	1.39
1173 K	1.387

From the NIST ThermoML archive (doi:10.1021/acs.jced.6b00362)
